Measured values from patent US12234216B2, “Isotopologues salts, crystalline forms, stereoisomers, of methylone and ethylone and methods of use thereof” (Terran Biosciences Inc., priority 2021, dated 2025).
Where a name gives a salt, the structure may show the parent alone.

Legend:
[1] = Metabolic stability in human liver microsomes; type: in vitro ADME; conditions: for difference in half-life and intrinsic clearance compared with the corresponding non-deuterated methylone hydrochloride: human liver microsomes
Procedure: Pooled liver microsomes are purchased from a reputable commercial supplier. Microsomes are stored at […] prior to use. Microsomes (final protein concentration 0.5 mg/mL), 0.1 M phosphate buffer pH 7.4 and test compound (final substrate concentration 1 μM; final DMSO concentration 0.25%) are preincubated at 37° C. prior to the addition of NADPH (final concentration 1 mM) to initiate the reaction. A minus cofactor control incubation is included for each compound tested where 0.1 M phosphate buffer pH 7.4 is added instead of NADPH (minus NADPH). Two control compounds are included with each species. All incubations are performed singularly for each test compound. Each compound is incubated for 0, 5, 15, 30 and 45 min. The control (minus NADPH) is incubated for 45 min only. The reactions are stopped by transferring incubate into acetonitrile at the appropriate time points, in a 1:3 ratio. The termination plates are centrifuged at 3,000 rpm for 20 min at 4° C. to precipitate the protein.
From a plot of ln peak area ratio (compound peak area/internal standard peak area) against time, the gradient of the line is determined. Subsequently, half-life and intrinsic clearance are calculated using the equations below: Elimination rate constant (k)=(−gradient) Half-life (t½)(min)=0.693/k Intrinsic clearance (CLint)(μL/min/mg protein)=V×0.693/t½ where V=Incubation volume (μL)/Microsomal protein (mg)
Relevant control compounds were assessed, ensuring intrinsic clearance values fall within the specified limits (if available).

Male Sprague-Dawley rats = experiment: Rat elevated zero-maze model of anxiety; type: in vivo; conditions: for decrease in SAPs compared with chlordiazepoxide / time spent in the open arms compared with chlordiazepoxide: 30 mg/kg ip vs chlordiazepoxide 6 mg/kg ip; for anxiolytic effects compared with chlordiazepoxide: high dose level; for time in the open arms: FIGS. 62-64
Excerpt: The rat zero-maze model is a refined alternative to the plus-maze, the most widely used animal model of anxiety, and consists of an elevated annular platform, divided equally into four quadrants. Two opposite quadrants are enclosed by Perspex walls on both the inner and the outer edges of the platform, while the remaining two opposite quadrants are open being enclosed only by a Perspex “lip”. Animals will show a preference for the closed areas, and avoidance of the open sections is assumed to stem from a rodent's natural aversion to open, exposed spaces. The primary index of anxiety, which reflect changes in open arm preference, is the percentage of time spent on the open areas. A reduction in the amount of activity on the open areas is considered to reflect an increase in anxiety. Other, ethologically-based behaviours are also assessed as indices of anxiety. One of the most important is stretched attend postures (SAP) from closed to open quadrants. […] Shepherd, J K; et al., (1994) Behavioural and pharmacological validation of the elevated “zero-maze” as an animal model of anxiety. Psychopharmacol., 116:56-64.
Male Sprague-Dawley 200-250 g (Envigo UK) rats were used. Animals were group-housed (5 per cage; cage size: 40×40×20 cm) in a temperature-controlled environment (22±2° C.), under a 12 h light-dark cycle (lights on: 08:00 hours) for one week prior to testing. Food and water were freely available. Number of animals per group=5. Animals were moved into the experimental room 16-24 hours before testing.
The elevated 0-maze comprises a black Perspex annular platform (105 cm diameter, 10 cm width) elevated to 65 cm above ground level, divided equally into four quadrants. Two opposite quadrants are enclosed by clear red Perspex walls (27 cm high) on both the inner and outer edges of the platform, while the remaining two opposite quadrants are surrounded only by a Perspex “lip” (1 cm high) which serves as a tactile guide to animals on these open areas.
Subjects were weighed and tail marked before being injected. After a specified pre-treatment time, subjects were placed in a closed quadrant and a 5-min test period were recorded on videotape for subsequent analysis. The maze were cleaned with 5% methanol/water solution and dried thoroughly between test sessions. Behavioural measures comprise percentage time spent on the open areas (% TO) and frequency of stretched attend postures (SAP) from closed to open quadrants. Since the control groups were all treated identically with the same vehicle these were combined to increase power. The Chlordiazepoxide groups were also treated identically with the same dose so these were also combined to increase power. Animals are scored as being in the open area when all four paws were in an open quadrant and in the closed area only when all four paws have passed over the open-closed divide. All testing were carried out between 9.00 and 16.00 hours.
For each study, a 1-way ANOVA was conducted across vehicle, CDP, and drug treatment groups. Each group was compared to the vehicle group and a p-value for treatment determined by Fishers Least Significant Difference (LSD) test. This analysis was performed in GraphPad Prism (Version 9). Formulations: […]
Intraperitoneal (IP): Racemic methylone HCl was formulated in Vehicle 1 (Saline) for injection to concentrations of 1, 3 and 6 mg/mL to provide doses of 5, 15 and 30 mg/kg when administered ip in 5 mL/kg dosing volumes.
Intraperitoneal (IP): S-methylone HCl was formulated in Vehicle 1 (Saline) for injection to concentrations of 0.5, 1, 1.5, 3 and 6 mg/mL to provide doses of 2.5, 5, 7.5, 15 and 30 mg/kg when administered ip in 5 mL/kg dosing volumes.
Intraperitoneal (IP): R-methylone HCl was formulated in Vehicle 1 (Saline) for injection to concentrations of 1, 3 and 6 mg/mL to provide doses of 5, 15 and 30 mg/kg when administered ip in 5 mL/kg dosing volumes. […]

[2] = test system: participants diagnosed with at least moderate post-traumatic stress disorder (PTSD); experiment: Double-blind, randomized, placebo-controlled clinical trial of methylone-assisted psychotherapy in PTSD; type: in vivo, human; conditions: for CAPS-5 assessments compared to placebo-treated controls: Intervening Session 1C, 2C, 3C and Study Conclusion; for clinician-rated functional impairment score as measured by SDS / depression as measured by HAM-D: vs placebo-treated controls; for change in CAPS-5 assessment compared to the placebo group: 100-200 mg p.o. initial dose, 3 Experimental Sessions with psychotherapy
Procedure: A multicenter, randomized, double-blind, placebo-controlled trial is conducted to assess the efficacy and safety of methylone-assisted psychotherapy versus psychotherapy with placebo control in participants diagnosed with at least moderate post-traumatic stress disorder (PTSD).
This multicenter, randomized, double-blind, placebo-controlled trial is conducted at various sites in the United States with IRB approval from each study site. A flexible dose of methylone hydrochloride salt or placebo, followed by a supplemental half-dose unless contraindicated by patient's previous response or medical history, is also administered during the Treatment Period with psychotherapy in at least 3 blinded monthly Experimental Sessions. The Supplemental Dose extends the duration of drug effects on the participants during an Experimental Session. Methylone test groups are further subdivided into specific groups receiving only racemic methylone hydrochloride salt, S-methylone hydrochloride salt, or R-methylone hydrochloride salt. An optional Risk Evaluation and Mitigation Strategy (REMS) Protocol may be implemented for the racemic methylone, S-methylone, and placebo-groups. The Treatment Period lasts for approximately 12 weeks. During the Treatment Period, each Experimental Session is followed by three Intervening Sessions of non-drug psychotherapy. Each Experimental Session involves an overnight stay. The Primary Outcome measure, the change in Clinician Administered PTSD Scale for DSM-5 (CAPS-5), is determined by a blinded Independent Rater (IR) pool multiple times throughout the study. The study consists of separate periods for each participant. Initially, prospective participants undergo a Screening Period involving an initial eligibility assessment, a medical history intake, informed consent, and enrollment of eligible participants. Next, a Preparation Period is undertaken for enrolled participants involving medication tapering and clinical baseline assessments to confirm each participant meets enrollment criteria. As part of the Preparation Period, a detailed assessment of co-morbidities to PTSD is recorded. Participants may remain on prescribed courses of selective serotonin reuptake inhibitor (SSRI) or serotonin and norepinephrine reuptake inhibitor (SNRI) treatment. Dosages and/or frequency of administration of a prescribed SSRI or SNRI may be adjusted to fit within study parameters. Participants may be required to taper a prescribed course of medication in order to maintain eligibility within the study. The Treatment Period consists of three monthly Experimental Sessions and associated Intervening Sessions of integrative behavioral psychotherapy. The Treatment Period lasts approximately 12 weeks. Following the Treatment Period is a Follow-up Period and Study Conclusion. During the Follow-up Period and Study Conclusion, participants complete 4 weeks with no study visits, followed by a Study Conclusion visit.
This study compares the effects of three blinded Experimental Sessions of psychotherapy in combination with flexible doses of methylone or placebo administered as described below. Non-drug preparatory and intervening psychotherapy sessions are also included. Patient's weight is determined for dosage calculation. Initial dose is 100 mg unless this will result in a dosage of less than 1.5 mg/kg of patient weight. Initial dose thereby adjusted upward in 25 mg increments to deliver the lowest dose possible of at least 1.5 mg/kg of patient weight. Initial dose for Experimental Session 2 and 3 is cumulative dose calculated by adding the initial dose plus REMS protocol dose used the previous Experimental Session for each patient.
Randomization occurs prior to the initiation of Experimental Session 1. Each participant is provided the next randomized number in a sequence by a blinded study monitor. […]

[3] = specific doses, ip, 30 min pretest
[4] = specific doses, ip, 30 min pretest, vs chlordiazepoxide 6 mg/kg, FIGS. 65-67

SMILES | difference in half-life and intrinsic clearance compared with the corresponding non-deuterated methylone hydrochloride [1] | decrease in SAPs compared with chlordiazepoxide (Male Sprague-Dawley rats) | time spent in the open arms compared with chlordiazepoxide (Male Sprague-Dawley rats) | anxiolytic effects compared with chlordiazepoxide (Male Sprague-Dawley rats) | time in the open arms (Male Sprague-Dawley rats; [3]) | frequency of SAPs (Male Sprague-Dawley rats; [4]) | CAPS-5 assessments compared to placebo-treated controls [2] | daytime sleepiness as measured by ESS ([2]; Study Conclusion) | clinician-rated functional impairment score as measured by SDS ([2]; Study Conclusion) | depression as measured by HAM-D ([2]; Study Conclusion) | change in CAPS-5 assessment compared to the placebo group ([2]; Study Conclusion) | further results
Cl.[2H]C([2H])([2H])N[C@H](C)C(=O)c1ccc2c(c1)OC([2H])([2H])O2 [(R)-Methylone-d5 hydrochloride, (R)-1-(benzo[d][1,3]dioxol-5-yl-2,2-d2)-2-((methyl-d3)amino)propan-1-one HCl] | most significant difference in half-life and intrinsic clearance |  |  |  |  |  |  |  |  |  |  | CLint (μL/min/mg protein) ([1]; human liver microsomes 0.5 mg/mL, 1 μM compound, NADPH, 0-45 min): 6.27 μL/min/mg protein
CN[C@H](C)C(=O)c1ccc2c(c1)OCO2 [(R)-Methylone Hydrochloride, (R)-1-(benzo[d][1,3]dioxol-5-yl)-2-(methylamino)propan-1-one hydrochloride] |  | to the same level as chlordiazepoxide | as effective as chlordiazepoxide | anxiolytic effects as effective as chlordiazepoxide | increase time in the open arms | decreased the frequency of SAPs as effectively as the benzodiazepine chlordiazepoxide | Significant improvements in CAPS-5 assessments | significant improvement in lessening daytime sleepiness | significant improvement in clinician-rated functional impairment score | significant improvement depression | significant mean reduction in CAPS-5 assessment | frequency of SAPs (Male Sprague-Dawley rats; 30 mg/kg ip): significantly decreasing SAPs; frequency of SAPs, trend with dose (Male Sprague-Dawley rats; 5, 15 and 30 mg/kg ip): dose dependent decrease in SAPs; time spent in the open arms, trend with dose (Male Sprague-Dawley rats; 5, 15 and 30 mg/kg ip): dose dependent increase in time spent in the open arms; anxiogenic effect (Male Sprague-Dawley rats; any dose (5, 15, 30 mg/kg ip)): did not show any anxiogenic effect at any dose; anxiogenic effects at lower doses (Male Sprague-Dawley rats; ip): not seen; adverse anxiogenic incidents ([2]; compared to placebo-treated controls): without a significant increase in adverse anxiogenic incidents
Cl.[2H]C1([2H])Oc2ccc(C(=O)[C@H](C)NC)cc2O1 [(S)-Methylone-d2 hydrochloride, (S)-1-(benzo[d][1,3]dioxol-5-yl-2,2-d2)-2-(methylamino)propan-1-one hydrochloride] | differences in half-life and intrinsic clearance |  |  |  |  |  |  |  |  |  |  | 
CN[C@@H](C)C(=O)c1ccc2c(c1)OCO2 [(S)-Methylone Hydrochloride, (S)-1-(benzo[d][1,3]dioxol-5-yl)-2-(methylamino)propan-1-one hydrochloride] |  | even more effective than chlordiazepoxide at reducing SAPs | as effective as chlordiazepoxide at increasing time spent in the open arms | anxiolytic effects as effective as chlordiazepoxide | increase time in the open arms | decreased the frequency of SAPs as effectively as the benzodiazepine chlordiazepoxide | Significant improvements in CAPS-5 assessments | significant improvement in lessening daytime sleepiness | significant improvement in clinician-rated functional impairment score | significant improvement depression | significant mean reduction in CAPS-5 assessment | frequency of SAPs, trend with dose (Male Sprague-Dawley rats; 2.5 mg/kg and 5 mg/kg ip): dose dependent increase in SAPs; time spent in the open arms, trend with dose (Male Sprague-Dawley rats; 5 mg/kg, 7.5 mg/kg and 15 mg/kg ip): time spent in the open arms decreased as the dose increased; frequency of SAPs, trend with dose (Male Sprague-Dawley rats; 7.5 mg/kg, 15 mg/kg and 30 mg/kg ip): dose dependent decrease in SAPS; overall effect on anxiety (Male Sprague-Dawley rats; 30 mg/kg ip): effective anxiolytic on all measures; time spent in the open arms (Male Sprague-Dawley rats; 30 mg/kg ip): time in the open arms increased; anxiogenic effects at lower doses (Male Sprague-Dawley rats; ip, hydrochloride): anxiogenic effects at lower doses; total dosage of drug needed for significant mean reduction in CAPS-5, compared to the racemic methylone-treated subgroup ([2]; Study Conclusion): lower total dosage of drug
